From article PMC2785468, “Androgen Receptor Mutations Associated with Androgen Insensitivity Syndrome: A High Content Analysis Approach Leading to Personalized Medicine” (PLoS ONE, 2009)

Target: T1, AR-P766S (Homo sapiens, UniProt P10275, P767S)
T1 construct: expressed in transfected cells
T1 sequence (P10275 1-920 P767S): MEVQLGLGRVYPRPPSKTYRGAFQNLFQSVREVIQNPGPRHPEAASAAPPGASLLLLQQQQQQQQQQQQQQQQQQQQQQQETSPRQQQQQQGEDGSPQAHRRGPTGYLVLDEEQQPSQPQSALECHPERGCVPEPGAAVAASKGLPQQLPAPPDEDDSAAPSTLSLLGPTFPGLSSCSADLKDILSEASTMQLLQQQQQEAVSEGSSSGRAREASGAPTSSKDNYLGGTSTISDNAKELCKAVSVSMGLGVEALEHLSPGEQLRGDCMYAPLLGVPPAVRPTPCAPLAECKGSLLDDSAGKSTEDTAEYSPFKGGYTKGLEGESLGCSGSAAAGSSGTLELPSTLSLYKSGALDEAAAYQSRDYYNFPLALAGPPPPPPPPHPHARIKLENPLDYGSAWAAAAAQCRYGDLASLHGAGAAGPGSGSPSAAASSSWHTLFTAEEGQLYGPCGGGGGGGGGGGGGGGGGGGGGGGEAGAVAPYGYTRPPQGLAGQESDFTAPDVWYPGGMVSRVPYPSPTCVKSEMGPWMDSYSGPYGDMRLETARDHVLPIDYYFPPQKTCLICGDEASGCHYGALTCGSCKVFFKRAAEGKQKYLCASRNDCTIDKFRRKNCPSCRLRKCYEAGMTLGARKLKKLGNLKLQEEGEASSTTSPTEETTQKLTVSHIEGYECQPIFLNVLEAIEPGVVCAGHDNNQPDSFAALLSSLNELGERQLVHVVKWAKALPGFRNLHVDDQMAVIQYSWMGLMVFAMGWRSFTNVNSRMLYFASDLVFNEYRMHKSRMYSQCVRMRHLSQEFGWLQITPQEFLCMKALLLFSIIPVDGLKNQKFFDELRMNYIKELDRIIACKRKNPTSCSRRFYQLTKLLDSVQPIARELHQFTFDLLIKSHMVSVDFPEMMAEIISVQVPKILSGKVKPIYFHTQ
Format: cell-based
Settings: HeLa P766S
Procedure: To determine the global effect of the various AIS mutations on AR signaling, each was analyzed using HCA. This technology allows simultaneous quantification of AR protein expression, nuclear translocation, subnuclear patterning, and transcriptional activity. The analysis was done in HeLa cell lines stably transfected with wild type or mutant ARs fused with green fluorescent protein, or using AR immunofluorescence in primary cultures of genital skin fibroblasts generated from foreskin biopsies of historical AIS patients, or of normal neonates undergoing circumcision at birth. To prevent the effects of receptor over-expression, stable HeLa cells were carefully selected to express AR levels similar to LNCaP as previously described. Prior to ligand treatment, HeLa cells were transfected with the pARR2PB-dsRED2skl reporter plasmid, consisting of the AR responsive promoter ARR2PB [31] driving expression of the red fluorescent protein reporter dsRED2skl engineered to target peroxisomes.
For studies utilizing HeLa GFP-AR cell lines, twenty-four hours before transfection with pARR2PB-dsRED2skl, cells were plated onto 100 mm plastic dishes in medium supplemented with 5% charcoal-stripped and dialyzed-FBS. Transient introduction of the pARR-2PB-dsRED2skl reporter construct was performed using 6.0 µg reporter plasmid and 6.0 µg carrier DNA (BlueScript, Stratagene, San Diego, CA) using Transfectin (Biorad) following standard protocols. After 8-hour incubation, DNA/lipid complexes were removed. Cells were then trypsinized and replated at 10,000 cells per well in Nunc poly-D-lysine treated 96-well optical glass bottom plates and incubated an additional 12 hours to allow for cell adhesion. […] Compound dilutions and final addition to multi-well plates were performed using a Beckman Biomek NX robotic platform to ensure repeatability from experiment to experiment. After incubation was complete, using the Biomek NX robot, plates were washed with PBS and fixed for 20 min at RT in 4% formaldehyde prepared in CSK buffer (80 mM potassium PIPES, pH 6.8, 5 mM EGTA, 2 mM MgCl2). After fixation, cells were briefly permeabilized (5 min) with 0.5% Triton-X and prepared for imaging by washing in PBS, aspirating the washed solution, and adding a 1 ng/ml DAPI solution to stain DNA and a generic protein stain (CellMask, Invitrogen) to facilitate cell and nuclear image segmentation. Cells were imaged in PBS.
Cells were imaged using the Cell Lab IC-100 Image Cytometer (IC-100; Beckman Coulter) platform that consists of 1) Nikon Eclipse TE2000-U Inverted Microscope (Nikon; Melville, NY); 2) Chroma 82000 triple band filter set (Chroma; Brattleboro, VT); 3) an imaging camera: Hamamatsu ORCA-ER Digital CCD camera (Hamamatsu; Bridgewater, NJ); and 4) a focusing camera: Photonics COHU Progressive scan camera (Photonics; Oxford, MA). […] In general, 49 to 64 images were captured per well for image analysis.
While our initial AR studies using HTM were based upon CytoShop (Beckman-Coulter), [15], [33], these approaches were refined in the current work with the more robust server-client Pipeline Pilot image analysis platform (Basic and Advanced Imagine Collections, Pipeline Pilot 7.5, Accelrys, San Diego). Initially, the background signal was removed from all images using plate- and channel-specific correction images, generated by the sum projection of >600 randomly selected images for each channel from the image set. This allows for a pixel-by-pixel background subtraction that compensates any consistent uneven background artifacts in the image set. Furthermore, users are able to customize the degree of background subtraction by applying a multiplier to each correction image, useful for identification of objects such as nuclei or cell borders. After background subtraction, nuclear masks were generated using a combination of non-linear least squares and watershed-from-markers image manipulations of the DAPI images (Fig. 1B).

C[C@@H]1CC2=CC(=O)CC[C@@H]2[C@H]2CC[C@@]3(C)[C@@H](CC[C@]3(C)O)[C@@H]21 [Mb, Mibolerone]
Nuclear Translocation, Max (% signal present in the nucleus): 78.9±1.5% | Hyperspeckling, Max (absolute numerical measurement): 785±30 | Transcriptional Activity, Max (pARR2PB-dsRED2skl reporter, absolute numerical measurement): 98±2.2
